Data from patent US9274116B2, “Drug selection for breast cancer therapy using antibody-based arrays” (NESTEC S.A., priority 2008, dated 2016).

Columns and labels:
breast tumor = assay: Response of breast cancer patient to therapy selected from pathway profile; type: in vivo, human
From the text: (§1) The exemplary patient profiles shown below in Tables 4-22 illustrate how an analysis of the pathways active in circulating tumor cells (CTCs) from blood or cancer cells obtained from a needle biopsy can be used to help physicians decide upon an effective course of treatment for a breast tumor, e.g., neoadjuvant treatment prior to surgery to reduce the size of the breast tumor or treatment in patients with locally recurrent or metastatic breast cancer. In brief, the activation levels of different components of the ErbB and nuclear hormone receptor pathways in CTCs or biopsy-derived cancer cells can be determined in the presence or absence of different combinations of test therapeutic agents.
In brief, the activation levels of different components of signal transduction pathways such as the ErbB receptor pathways in CTCs or biopsy-derived cancer cells can be determined in the presence or absence of different combinations of test therapeutic agents.

ErbB2 = target: T1, ErbB2 (Homo sapiens, UniProt P04626); assay: Tumor cell pathway profile: ErbB2; type: in vivo; conditions: tumor cells on re-biopsy
T1 construct: pathways active in circulating tumor cells (CTCs) from blood or cancer cells obtained from a needle biopsy; endogenous in cells; host or cells: patient's circulating tumour cells or biopsy-derived breast cancer cells
T1 sequence (P04626 23-1255): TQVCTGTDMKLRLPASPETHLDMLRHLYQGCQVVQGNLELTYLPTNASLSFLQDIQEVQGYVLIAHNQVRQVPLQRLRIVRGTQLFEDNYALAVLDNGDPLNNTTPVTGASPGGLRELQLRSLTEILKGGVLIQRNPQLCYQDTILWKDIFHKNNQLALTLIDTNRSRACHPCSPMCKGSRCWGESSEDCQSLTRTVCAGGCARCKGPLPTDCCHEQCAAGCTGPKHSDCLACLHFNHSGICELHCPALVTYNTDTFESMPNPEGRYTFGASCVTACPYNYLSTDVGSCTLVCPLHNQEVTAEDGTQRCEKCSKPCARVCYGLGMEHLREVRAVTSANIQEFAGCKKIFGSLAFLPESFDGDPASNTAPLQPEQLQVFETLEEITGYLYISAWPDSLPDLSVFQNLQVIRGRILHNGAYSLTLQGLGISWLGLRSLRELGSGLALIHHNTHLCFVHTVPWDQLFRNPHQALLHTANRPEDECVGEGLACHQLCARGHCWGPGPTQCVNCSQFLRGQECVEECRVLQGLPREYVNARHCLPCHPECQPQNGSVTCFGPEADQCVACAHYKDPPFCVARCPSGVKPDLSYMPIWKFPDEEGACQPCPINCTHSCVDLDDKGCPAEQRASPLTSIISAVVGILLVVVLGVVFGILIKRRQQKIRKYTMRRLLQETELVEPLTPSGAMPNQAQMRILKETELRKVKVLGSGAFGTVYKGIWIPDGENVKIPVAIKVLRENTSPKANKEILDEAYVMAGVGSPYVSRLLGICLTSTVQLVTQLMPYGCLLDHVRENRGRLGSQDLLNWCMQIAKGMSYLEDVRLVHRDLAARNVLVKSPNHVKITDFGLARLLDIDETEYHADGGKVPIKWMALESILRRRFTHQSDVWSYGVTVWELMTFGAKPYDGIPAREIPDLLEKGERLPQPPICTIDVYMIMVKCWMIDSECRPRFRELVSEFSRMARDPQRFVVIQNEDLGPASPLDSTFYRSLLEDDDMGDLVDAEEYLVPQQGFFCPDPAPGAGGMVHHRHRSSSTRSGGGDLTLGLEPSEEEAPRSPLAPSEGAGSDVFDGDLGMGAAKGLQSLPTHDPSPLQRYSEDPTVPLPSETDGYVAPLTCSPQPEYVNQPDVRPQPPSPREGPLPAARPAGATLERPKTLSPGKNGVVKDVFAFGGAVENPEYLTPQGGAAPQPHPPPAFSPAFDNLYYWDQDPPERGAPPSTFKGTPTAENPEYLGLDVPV
Experimental: (§2) The incubation was for 2 hours at room temperature. • 5) Alternatively, the detection step utilized a biotin-conjugate of the monoclonal antibody recognizing phosphorylated EGFR. In these instances, after six washes an additional sequential step of incubation with streptavidin-HRP for 1 hour was included. • 6) Alternatively, the detection step utilized an oligonucleotide-mediated glucose oxidase (GO) conjugate of the anti-EGFR antibody.
(§3) In brief, the activation levels of different components of the ErbB and nuclear hormone receptor pathways in CTCs or biopsy-derived cancer cells can be determined in the presence or absence of different combinations of test therapeutic agents.

PI3K = assay: Tumor cell pathway profile: PI3K; type: in vivo, human; conditions: tumor cells on re-biopsy
Experimental: as §2, §3

ErbB1 = target: T2, ErbB1 (Homo sapiens, UniProt P00533); assay: Tumor cell pathway profile: ErbB1; type: in vivo; conditions: Patient 4008 (High AIB1; ER+/PR+/ErbB2−), tumor cells on re-biopsy
T2 construct: pathways active in circulating tumor cells (CTCs) from blood or cancer cells obtained from a needle biopsy; endogenous in cells; host or cells: patient's circulating tumour cells or biopsy-derived breast cancer cells
Experimental: as §2, §3

ErbB3 = assay: Tumor cell pathway profile: ErbB3; type: in vivo, human; conditions: tumor cells on re-biopsy
Experimental: as §2, §1

Shc = assay: Tumor cell pathway profile: Shc; type: in vivo, human; conditions: tumor cells on re-biopsy
Experimental: as §2, §1

ER (Ser 167) = target: T3, ER (Ser 167) (Homo sapiens, UniProt P03372); assay: Tumor cell pathway profile: ER (Ser 167) phosphorylation; type: in vivo; conditions: Patient 4008 (High AIB1; ER+/PR+/ErbB2−), tumor cells on re-biopsy
T3 construct: pathways active in circulating tumor cells (CTCs) from blood or cancer cells obtained from a needle biopsy; endogenous in cells; host or cells: patient's circulating tumour cells or biopsy-derived breast cancer cells
T3 sequence (P03372 whole entry): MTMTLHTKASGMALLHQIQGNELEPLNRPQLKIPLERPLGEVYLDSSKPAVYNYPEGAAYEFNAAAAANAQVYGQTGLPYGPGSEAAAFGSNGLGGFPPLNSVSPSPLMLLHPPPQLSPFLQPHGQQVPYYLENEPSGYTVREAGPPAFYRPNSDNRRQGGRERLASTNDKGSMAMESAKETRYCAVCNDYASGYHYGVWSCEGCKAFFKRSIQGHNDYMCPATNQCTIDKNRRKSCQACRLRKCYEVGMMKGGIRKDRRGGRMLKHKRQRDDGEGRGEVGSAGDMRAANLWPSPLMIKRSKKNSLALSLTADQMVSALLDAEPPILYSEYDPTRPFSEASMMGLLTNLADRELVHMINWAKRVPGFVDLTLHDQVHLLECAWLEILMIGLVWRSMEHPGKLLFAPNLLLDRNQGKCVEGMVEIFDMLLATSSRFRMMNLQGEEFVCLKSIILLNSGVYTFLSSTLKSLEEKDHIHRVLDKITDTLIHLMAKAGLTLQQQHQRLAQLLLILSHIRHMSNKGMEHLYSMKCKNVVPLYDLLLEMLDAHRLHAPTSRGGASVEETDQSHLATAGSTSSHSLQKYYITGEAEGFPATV
Experimental: as §2, §3

ER (Ser 118) = target: T4, ER (Ser 118) (Homo sapiens, UniProt P03372); assay: Tumor cell pathway profile: ER (Ser 118) phosphorylation; type: in vivo; conditions: Patient 4008 (High AIB1; ER+/PR+/ErbB2−), tumor cells on re-biopsy
T4 construct: pathways active in circulating tumor cells (CTCs) from blood or cancer cells obtained from a needle biopsy; endogenous in cells; host or cells: patient's circulating tumour cells or biopsy-derived breast cancer cells
T4 sequence (P03372 whole entry): as above
Experimental: as §2, §3

ER = target: T5, ER (Homo sapiens, UniProt P03372); assay: Tumor cell (CTC/biopsy) pathway profile on antibody array: ER expression; type: in vivo; conditions: Patient 4008 (High AIB1; ER+/PR+/ErbB2−), tumor cells on re-biopsy
T5 construct: pathways active in circulating tumor cells (CTCs) from blood or cancer cells obtained from a needle biopsy; endogenous in cells; host or cells: patient's circulating tumour cells or biopsy-derived breast cancer cells
T5 sequence (P03372 whole entry): as above
Experimental: as §2, §3

ErbB4 = target: T6, ErbB4 (Homo sapiens, UniProt Q15303); assay: Tumor cell pathway profile: ErbB4; type: in vivo; conditions: tumor cells on re-biopsy
T6 construct: pathways active in circulating tumor cells (CTCs) from blood or cancer cells obtained from a needle biopsy; endogenous in cells; host or cells: patient's circulating tumour cells or biopsy-derived breast cancer cells
T6 sequence (Q15303 26-1308): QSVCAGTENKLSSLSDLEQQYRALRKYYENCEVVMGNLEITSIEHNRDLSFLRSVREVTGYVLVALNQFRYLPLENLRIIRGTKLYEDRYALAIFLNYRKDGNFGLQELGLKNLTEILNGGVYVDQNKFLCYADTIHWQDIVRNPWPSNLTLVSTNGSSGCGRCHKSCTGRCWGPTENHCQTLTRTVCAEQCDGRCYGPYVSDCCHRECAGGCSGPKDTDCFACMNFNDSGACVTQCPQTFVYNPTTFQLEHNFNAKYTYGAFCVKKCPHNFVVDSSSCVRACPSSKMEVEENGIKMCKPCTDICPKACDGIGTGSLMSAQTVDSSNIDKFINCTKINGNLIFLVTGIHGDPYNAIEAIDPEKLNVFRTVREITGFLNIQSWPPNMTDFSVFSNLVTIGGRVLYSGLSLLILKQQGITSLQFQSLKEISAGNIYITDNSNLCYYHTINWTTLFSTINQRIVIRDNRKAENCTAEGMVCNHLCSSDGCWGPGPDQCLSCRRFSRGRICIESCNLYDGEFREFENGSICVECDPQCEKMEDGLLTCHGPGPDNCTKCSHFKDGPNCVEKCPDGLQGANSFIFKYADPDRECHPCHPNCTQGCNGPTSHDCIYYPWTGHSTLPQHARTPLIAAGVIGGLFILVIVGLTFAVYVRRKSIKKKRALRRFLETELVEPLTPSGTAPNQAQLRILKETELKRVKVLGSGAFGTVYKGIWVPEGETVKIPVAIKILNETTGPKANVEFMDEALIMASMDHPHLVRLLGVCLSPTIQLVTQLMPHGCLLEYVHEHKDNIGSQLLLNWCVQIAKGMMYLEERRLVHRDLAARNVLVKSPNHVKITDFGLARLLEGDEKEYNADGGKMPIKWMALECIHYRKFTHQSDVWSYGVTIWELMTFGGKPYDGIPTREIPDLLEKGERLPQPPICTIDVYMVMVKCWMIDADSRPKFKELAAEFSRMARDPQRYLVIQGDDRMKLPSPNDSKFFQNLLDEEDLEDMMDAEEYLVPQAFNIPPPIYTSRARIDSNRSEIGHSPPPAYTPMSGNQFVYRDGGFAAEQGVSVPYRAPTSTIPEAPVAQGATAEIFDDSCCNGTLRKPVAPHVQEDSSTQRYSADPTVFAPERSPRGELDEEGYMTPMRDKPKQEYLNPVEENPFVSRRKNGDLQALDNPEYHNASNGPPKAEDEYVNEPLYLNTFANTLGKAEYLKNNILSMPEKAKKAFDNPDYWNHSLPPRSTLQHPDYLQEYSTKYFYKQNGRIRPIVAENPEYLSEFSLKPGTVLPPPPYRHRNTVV
Experimental: as §2, §3

ER:N-CoR Complex = target: T7, ER:N-CoR Complex (Homo sapiens, UniProt P03372); assay: Tumor cell pathway profile: ER:N-CoR complex; type: in vivo; conditions: Patient 4008 (High AIB1; ER+/PR+/ErbB2−), tumor cells on re-biopsy
T7 construct: pathways active in circulating tumor cells (CTCs) from blood or cancer cells obtained from a needle biopsy; endogenous in cells; host or cells: patient's circulating tumour cells or biopsy-derived breast cancer cells
Experimental: as §2, §3

ER:AIB1 Complex = target: T8, ER:AIB1 Complex (Homo sapiens, UniProt P03372); assay: Tumor cell pathway profile: ER:AIB1 complex; type: in vivo; conditions: Patient 4008 (High AIB1; ER+/PR+/ErbB2−), tumor cells on re-biopsy
T8 construct: pathways active in circulating tumor cells (CTCs) from blood or cancer cells obtained from a needle biopsy; endogenous in cells; host or cells: patient's circulating tumour cells or biopsy-derived breast cancer cells
T8 sequence (P03372 whole entry, one chain of several): as the sequence (P03372 whole entry) above
Experimental: as §2, §3

Rsk = assay: Tumor cell pathway profile: Rsk; type: in vivo, human; conditions: tumor cells on re-biopsy
Experimental: as §2, §3

Ki67 = assay: Tumor cell pathway profile: Ki67; type: in vivo, human; conditions: tumor cells on re-biopsy
Experimental: as §2, §1

IGF-1R = assay: Tumor cell pathway profile: IGF-1R; type: in vivo, human; conditions: tumor cells on re-biopsy
Experimental: as §2, §3

Progesterone Receptor = assay: Tumor cell pathway profile: Progesterone Receptor; type: in vivo, human; conditions: tumor cells on re-biopsy
Experimental: as §2, §1

Erk = assay: Tumor cell pathway profile: Erk; type: in vivo, human; conditions: tumor cells on re-biopsy
Experimental: as §2, §3

Akt = assay: Tumor cell pathway profile: Akt; type: in vivo, human; conditions: tumor cells on re-biopsy
Experimental: as §2, §3

P70S6K = assay: Tumor cell pathway profile: P70S6K; type: in vivo, human; conditions: tumor cells on re-biopsy
Experimental: as §2, §3

PTEN = assay: Tumor cell pathway profile: PTEN; type: in vivo, human; conditions: Patient 4001 (ER+/PR+/ErbB2−), tumor cells on re-biopsy
Experimental: as §2, §1

TOPO II = assay: Tumor cell pathway profile: TOPO II; type: in vivo, human; conditions: Patient 4001 (ER+/PR+/ErbB2−), tumor cells on re-biopsy
Experimental: as §2, §1

pHER-2 = assay: Multiplexed proximity assay, per-cell RTK activation in cell lines: pHER-2; type: cell-based; conditions: for Per Cell-RTK Activation (RFU/cell) pHER2: stimulation with the ligand, calculated from number of cells required to detect EC20 (12000 RFU)
Experimental: SKBR3, MDA-MB-468, T47D, and BT474 cell lines were obtained from ATCC. Cells were grown in the following growth media in 100 mm tissue culture plates at 37° C. in 5% CO2: SKBR3—MacCoy's 5A medium with 10% FBS; MDA-MB-468—DMEM, 10% FBS; BT474—DMEM, 10% FBS; T47D—RPMI 1640, 10% FBS, 0.2 U/ml bovine insulin. Cells were harvested at 70-80% confluency with gentle detachment process (trypsin treatment+subsequent inactivation) and were subsequently counted and washed with 1×PBS. […] Subsequently, stimulated cells were washed with 1×PBS and then were lysed and kept on ice for 30 min.
Capture antibodies were diluted in 1×PBS with detergent. A contact microarray printer (Genetix) was utilized to print on 16 pad nitrocellulose FAST slides (Whatman). The spot diameter was approximately 175 μm and printed slides were kept in a desiccated chamber at 4° C.
Slides were incubated with blocking buffer for 1 hr and then washed 3× with TBST buffer. Cell lysates were then added onto each pad for overnight incubation at room temperature (RT). Upon the completion of the primary binding, lysates were aspirated and then each pad was washed several times with TBST. Then, secondary detector antibodies (conjugated with GO or HRP) were added to each pad for 2 hr at RT. Unbound secondary detector antibodies were removed by washing with TBST, and signal amplification buffer containing glucose and biotinylated tyramide was added to each pad for 15 min. After removing excess biotinylated tyramide, Alexa-647 conjugated strepavidin was added for the signal detection.
Quantitation was performed using Perkin Elmer ScanArray Express software and the data obtained was corrected for local and global background intensities. A GenePixArray List (GAL) file was used to provide descriptive name and identifier information and was incorporated into the image analysis output file. Signals from triplicate spots were averaged and data were normalized to correct for pad to pad variability. A nonlinear regression model was used for the quantitation of cell-equivalent amount for corresponding relative fluorescence unit (RFU) values. The data were fit to a five parameter Hill equation to generate the standard curves. Each curve was validated against known controls. A known number of cells was predicted for the appropriate dilution, corresponding to the curve with the highest slope at the intensity of the unknown sample.
Analytical specificity of the collaborative immunoassay format described herein was >99.99% based on a comparative study performed on multiple cell lines with various RTK levels. […] The RTK activation profile for T47D cells, which express some level of ErbB2 and ErbB3 but an extremely low amount of ErbB1, is shown in FIG. 22. The number of cells required to detect EC20 (12000 RFU) pHER-1 or pHER-2 were used to calculate per-cell RTK activation (RFU/cell) as shown in Table 43. When MB468 cells expressing an extremely low amount of HER-2 were used, having ˜1000 cells per reaction pad was not sufficient to achieve EC20, and this type of low or non-detectable signal in other cell lines was indicated as “ND” in Table 43. […] This collaborative immunoassay format ensures ultra-specificity while maintaining its sub-single cell level (10^4 to 10^5) molecular level assay sensitivity.

p95ErbB2 = conditions: T47D cells, FIG. 17
Experimental: The slide is incubated for two hours at room temperature. • 4) After six washes with TBS-Tween, 80 μl of detection antibodies for the proximity assay diluted in TBS-Tween/2% BSA/1% FBS is added to the slides. The detection antibodies used are: (1) an anti-ErbB2 antibody specific for the intracellular domain of ErbB2 that is directly conjugated to glucose oxidase (GO); and (2) a monoclonal antibody recognizing phosphorylated ErbB2 that is directly conjugated to horseradish peroxidase (HRP). The incubation is for 2 hours at room temperature. • 5) For signal amplification, 80 μl of biotin-tyramide at 5 μg/ml is added and reacted for 15 minutes along with 50 mM glucose. The slide is washed six times with TBS-Tween, twice with 20% DMSO/TBS-Tween, and once with TBS. […] The slide is then washed twice, dried for 5 minutes, and scanned on a microarray scanner (Perkin-Elmer, Inc.). • 6) As a non-limiting example, slide 1 can report on total ErbB2 activation while slide 2 can report on truncated ErbB2 activation.
The slide is incubated for two hours at room temperature. • 4) After six washes with TBS-Tween, 80 μl of detection antibodies for the assay diluted in TBS-Tween/2% BSA/1% FBS is added to the slides. The detection antibody used is an anti-ErbB2 antibody specific for the intracellular domain of ErbB2 that is directly conjugated to HRP. […]

pHER-1 = target: T9, pHER-1 (Homo sapiens, UniProt P00533); assay: Multiplexed proximity assay, per-cell RTK activation in cell lines: pHER-1; type: cell-based; conditions: stimulation with the ligand, calculated from number of cells required to detect EC20 (12000 RFU)
T9 construct: host or cells: SKBR3, MDA-MB-468, T47D, BT474
Experimental: Slides were incubated with blocking buffer for 1 hr and then washed 3× with TBST buffer. Cell lysates were then added onto each pad for overnight incubation at room temperature (RT). Upon the completion of the primary binding, lysates were aspirated and then each pad was washed several times with TBST. Then, secondary detector antibodies (conjugated with GO or HRP) were added to each pad for 2 hr at RT. […]
Quantitation was performed using Perkin Elmer ScanArray Express software and the data obtained was corrected for local and global background intensities. […] A nonlinear regression model was used for the quantitation of cell-equivalent amount for corresponding relative fluorescence unit (RFU) values. […]

[1] = Patient 4008 (High AIB1; ER+/PR+/ErbB2−)

## C[C@]12CC[C@@H]3c4ccc(O)cc4C[C@@H](CCCCCCCCC[S+]([O-])CCCC(F)(F)C(F)(F)F)[C@H]3[C@@H]1CC[C@@H]2O (some centres unmarked) [Fulvestrant, fulvestrant]
Breast tumor; [1]
  Patient response to treatment: responded
ErbB2; [1]
  ErbB2: Treatment with Fulvestrant: Weak
PI3K; [1]
  PI3K: Treatment with Fulvestrant: Weak
ErbB1
  ErbB1: Treatment with Fulvestrant: Weak
ErbB3; [1]
  ErbB3: Treatment with Fulvestrant: Weak
Shc; [1]
  Shc: Treatment with Fulvestrant: Weak
ER (Ser 167)
  ER (Ser 167): Treatment with Fulvestrant: Weak
ER (Ser 118)
  ER (Ser 118): Treatment with Fulvestrant: Weak
ER
  ER: Treatment with Fulvestrant: Low
ErbB4; [1]
  ErbB4: Treatment with Fulvestrant: Weak
ER:N-CoR Complex
  ER: N-CoR Complex: Treatment with Fulvestrant: Weak
ER:AIB1 Complex
  ER: AIB1 Complex: Treatment with Fulvestrant: Weak
Rsk; [1]
  Rsk: Treatment with Fulvestrant: Weak
Ki67; [1]
  Ki67: Treatment with Fulvestrant: Weak
IGF-1R; [1]
  IGF-1R: Treatment with Fulvestrant: Weak
Progesterone Receptor; [1]
  Progesterone Receptor: Treatment with Fulvestrant: Low
Erk; [1]
  Erk: Treatment with Fulvestrant: Weak
Akt; [1]
  Akt: Treatment with Fulvestrant: Weak
P70S6K; [1]
  P70S6K: Treatment with Fulvestrant: Weak

## CC/C(=C(\c1ccccc1)c1ccc(OCCN(C)C)cc1)c1ccccc1 [Tamoxifen, tamoxifen]
Breast tumor; Patient 4001 (ER+/PR+/ErbB2−), premenopausal, node negative
  Patient response to treatment: responded
ErbB2; Patient 4001 (ER+/PR+/ErbB2−)
  ErbB2: Treatment with Tamoxifen: Weak
PI3K; Patient 4001 (ER+/PR+/ErbB2−)
  PI3K: Treatment with Tamoxifen: Weak
ErbB3; Patient 4001 (ER+/PR+/ErbB2−)
  ErbB3: Treatment with Tamoxifen: Weak
Shc; Patient 4001 (ER+/PR+/ErbB2−)
  Shc: Treatment with Tamoxifen: Weak
ErbB4; Patient 4001 (ER+/PR+/ErbB2−)
  ErbB4: Treatment with Tamoxifen: Weak
Rsk; Patient 4001 (ER+/PR+/ErbB2−)
  Rsk: Treatment with Tamoxifen: Weak
Ki67; Patient 4001 (ER+/PR+/ErbB2−)
  Ki67: Treatment with Tamoxifen: Weak
PTEN
  PTEN: Treatment with Tamoxifen: Medium
IGF-1R; Patient 4001 (ER+/PR+/ErbB2−)
  IGF-1R: Treatment with Tamoxifen: Weak
Progesterone Receptor; Patient 4001 (ER+/PR+/ErbB2−)
  Progesterone Receptor: Treatment with Tamoxifen: Medium
Erk; Patient 4001 (ER+/PR+/ErbB2−)
  Erk: Treatment with Tamoxifen: Weak
TOPO II
  TOPO II: Treatment with Tamoxifen: Medium
Akt; Patient 4001 (ER+/PR+/ErbB2−)
  Akt: Treatment with Tamoxifen: Weak
P70S6K; Patient 4001 (ER+/PR+/ErbB2−)
  P70S6K: Treatment with Tamoxifen: Weak

## EGF: epidermal growth factor, stimulatory growth factor
pHER-2; BT 474 cells
  Per Cell-RTK Activation (RFU/cell) pHER2: 1200 RFU/cell
pHER-2; MDA MB 468 cells stimulated with EGF
  pHER-2: do not show any detectable
pHER-2; SKBR3 cells
  Per Cell-RTK Activation (RFU/cell) pHER2: 1334 RFU/cell
pHER-2; T47D cells
  Per Cell-RTK Activation (RFU/cell) pHER2: 80 RFU/cell

## heregulin
p95ErbB2
  p95ErbB2 phosphorylation: increased
pHER-1; MD AMB 468 cells
  Per Cell-RTK Activation (RFU/cell) pHER1: 4000 RFU/cell
pHER-1; SKBR3 cells
  Per Cell-RTK Activation (RFU/cell) pHER1: 105 RFU/cell
pHER-2; BT 474 cells
  Per Cell-RTK Activation (RFU/cell) pHER2: 1200 RFU/cell
pHER-2; SKBR3 cells
  Per Cell-RTK Activation (RFU/cell) pHER2: 353 RFU/cell
pHER-2; T47D cells
  Per Cell-RTK Activation (RFU/cell) pHER2: 165 RFU/cell
